Three molecules from US12054510B2, “2′ and/or 5′ amino-acid ester phosphoramidate 3′-deoxy adenosine derivatives as anti-cancer compounds” (Nucana plc, priority 2014, dated 2024) can be followed below.

The test system of experiment [1] is MV4-11. The experiment is described as follows: Solid tumour and haematological malignancy assay (CellTiterGlo). Format: cell-based. The conditions noted are these: for IC50: Homo sapiens, MV4-11, 72 h, read-out: IC50 (absolute IC50).
Experiment [2] has as its system THP-1. Described as above. Format: cell-based. The conditions noted are these: 72 hr.
For experiment [3], the system named is HEL92.1.7. The description is as above. The format is cell-based. The conditions noted are these: Homo sapiens, HEL 92.1.7, 72 h, read-out: MI %. On the procedure:
(§1) In vitro viability assay were performed to assess the effects of compounds on cell viability in selected cell lines over 72 hr using the CellTiterGlo (CTG, Promega-G7573) assay. […] Cell viability assay using CellTiterGlo in 96-well plate were performed. Compound treatment 72 hrs, standard growth conditions, duplicates. Compounds were dissolved to 40 mM with thawed 100%. […] After compounds were dissolved in media, media containing compounds were warmed to 37° C. in incubator and then compounds in media were added to cell plates (50 μl+50 μl) in duplicates. […] All compound solubilities were checked and recorded again, then the plates were transferred to CO2 tissue culture incubator immediately and incubated for 3 days. DMSO final concentration is 0.5%.

For experiment [4], the system named is HL-60. The experiment is described as above. Format: cell-based. The conditions noted are these: Homo sapiens, HL-60, 72 h, read-out: MI %. On the procedure: as §1
For experiment [5], the system named is HT29. The experiment is described as above. The format is cell-based. The conditions noted are these: Homo sapiens, HT-29, 72 h; for IC50: read-out: IC50 (absolute IC50); for Emax: read-out: MI %. On the procedure:
as §1

For experiment [6], the system named is HepG2. The description is as above. The format is cell-based. The conditions noted are these: Homo sapiens, HepG2, 72 h; for Emax: read-out: MI %. The method, then: as §1
In experiment [7] the test system is K562. The description is as above. Format: cell-based. The conditions noted are these: Homo sapiens, K562, 72 h; for IC50: read-out: IC50 (absolute IC50); for Emax: read-out: MI %. The method, then: as §1
In experiment [8] the test system is KG-1. The experiment is described as above. The format is cell-based. The conditions noted are these: Homo sapiens, KG-1, 72 h; for IC50: read-out: IC50 (absolute IC50); for Emax: read-out: MI %. The method, then:
as §1

In experiment [9] the test system is MCF7. Described as above. Format: cell-based. The conditions noted are these: Homo sapiens, MCF7, 72 h; for IC50: read-out: IC50 (absolute IC50); for Emax: read-out: MI %. The method, then: as §1
For experiment [10], the system named is MiaPaCa-2. The experiment is described as above. Format: cell-based. The conditions noted are these: Homo sapiens, MIA PaCa-2, 72 h, read-out: MI %. The method, then:
as §1

In experiment [11] the test system is CEM (TdT+ve). The experiment is described as follows: ATP ViaLight plus cell viability assay. Format: cell-based, Human. The conditions noted are these: for (FD) fold difference compared to control: CEM. On the procedure: (§2) Certain compounds of the invention were subjected to further studies to test the cytotoxic activity of certain compounds of the invention and also to measure their activity against 4 haematological cancer cell lines • TdT positive CEM (Human ALL) • TdT negative K562 (Human CML) • TdT negative H1-60 (Human ANLL) • RL (CRL-2261) non-HD lymphoma • The concentrations of the active metabolite dATP (Cordycepin triphosphate) in these cell lines was also measured. • The cytotoxic activity and the intracellular 3′-dATP concentrations were also studied in the presence of hENT1, Adenosine Kinase (AK) and Adenosine Deaminase pharmacological inhibitors in CEM and RL cancer cell lines. Said inhibitors that mimic known cancer resistance mechanisms. Methods Cell Culture
(§3) HL-60, K562, CCRF-CEM and RL cell lines were cultured in RPMI-1640 medium (Sigma Aldrich, UK), which were supplemented with 10% Fetal Bovine Serum (FBS) (PAA Laboratories), 1% amphotericin B (5.5 ml) and 1% penicillin/streptomycin (5.5 ml) (PAA Laboratories) and grown in flasks at 37° C. incubator with 5% CO2.
(§4) The amount of ATP was used as a measurement of cell number and cell viability. ATP ViaLight™ plus assay kit (Lonza, USA: Product No. LT07-121) to detect ATP in cells treated in luminescence compatible 96 well plates (initial concentration of cells was 1×10^4 cells/well) with cordycepin and ProTides at concentrations of: 0, 0.1, 0.5, 1, 5 and 10 μM, followed by incubation for 72 hours at 37° C. incubator with 5% CO2. For inhibitor studies, 10 μM of NBTI or 1 μM EHNA or A-134974 was added and left for 5 minutes before adding the drugs (see section 5 for inhibitor details).
(§5) After incubation, 50 μl of cell lysis reagent was added to the 96 well plates to release the intracellular ATP, followed by 100 μl of ATP monitoring reagent (AMR). The luminescent values of each well were determined using FLUOstar OPTIMA microplate reader (BMG Labtech) which convert ATP into light by using luciferase enzyme. Therefore, the amount of luminescence produced was directly proportional to the amount of ATP.
(§6) Cell lines were treated in the same way as described above but before treatment with drugs, a number of inhibitors were added: • 1) Nitrobenzylthioinosine (NBTI) (Sigma-Aldrich, St. Louis, MO, product # N2255) blocks nucleoside transporters • 2) EHNA hydrochloride (Sigma-Aldrich, St. Louis, MO, product # E114) blocks adenosine deaminase • 3) Adenosine kinase inhibitor A-134974 dihydrochloride hydrate (Sigma-Aldrich, St. Louis, MO, product # A2846): blocks adenosine kinase
(§7) The dose-response curves of cytotoxicity of the drugs was determined using non-linear regression analysis of percentage cell viability versus concentration and EC50 values were obtained. The intracellular assay was conducted in five replicates for each condition. Intracellular assay was determined using paired t test (two-tailed) analysis of 3′ ATP/ATP concentration and p-values were obtained. For all the analysis, Prism Software program (GraphPad Software) was used and Microsoft Powerpoint® 2013 was used to plot the results.

The test system of experiment [12] is RL (CRL-2261). The experiment is described as follows: ATP ViaLight plus cell viability assay. Format: cell-based. The method, then:
as §2, §3, §4, §5, §6, §7

In the case of `C[C@H](NP(=O)(OC[C@@H]1C[C@@H](O)[C@H](n2cnc3c(N)ncnc32)O1)Oc1cccc2ccccc12)C(=O)OCc1ccccc1` (stereo partly drawn) [B, (2S)-benzyl 2-(((((2S,4R,5R)-5-(6-amino-9H-purin-9-yl)-4-hydroxytetrahydrofuran-2-yl)methoxy)(naphthalen-1-yloxy)phosphoryl)amino)propanoate], the IC50 in experiment [1] fell in the range of 0.1 to 5 µM; in experiment [5] it was 5 to 15 µM; in [7] it was 0.1 to 5 µM; in experiment [8], 5 to 15 µM; in [9] it was 0.1 to 5 µM. This molecule also yielded an MI % in [2] of 99%. The Emax in experiment [3] worked out at 98%; in [4], 99%; in [5], 98%; in [6], 98%; in experiment [7] it was 99%; in experiment [8], 97%. The Emax in experiment [9] is 96%; in [10], 98%. Besides, the “(FD) fold difference compared to Cordycepin = Cordycepin IC50/ProTide IC50” value in experiment [11] (CEM (TdT+ve)) is recorded as 150; in experiment [12] it was 61. Moreover, the “(FD) fold difference compared to control” value came to 1 in [11] (AK); 1 in experiment [11] (EHNA); 1 in experiment [11] (NBTI); 1 in experiment [12] (AK); 2 in [12] (EHNA); 1 in [12] (NBTI).

Consider `COC(=O)C(C)(C)NP(=O)(OC[C@@H]1C[C@@H](O)[C@H](n2cnc3c(N)ncnc32)O1)Oc1cccc2ccccc12` (stereo partly drawn) [E, Methyl 2-(((((2S,4R,5R)-5-(6-amino-9H-purin-9-yl)-4-hydroxytetrahydrofuran-2-yl)-methoxy)(naphthalen-1-yloxy)phosphoryl)amino)-2-methylpropanoate], for which the IC50 in experiment [1] lay in the range of 5 to 15 µM; in experiment [5], 15 to 100 µM; in experiment [6] (read-out: IC50 (absolute IC50)), 15 to 100 µM; in experiment [7] it was 5 to 15 µM; in experiment [8] it was 15 to 100 µM; in experiment [9], 5 to 15 µM. Moreover, the MI % in experiment [1] (MV4-11, 72 hr) is 101%; in experiment [2] it was 43%. Also, the Emax in experiment [3] turned out to be 101%; in [4], 95%; in [5] it was 76%; in [6], 67%; in [9], 89%; in [10], 91%. Besides, the “(FD) fold difference compared to Cordycepin = Cordycepin IC50/ProTide IC50” value in [11] (CEM (TdT+ve)) and in [12] was 2 in each case. Also, the “(FD) fold difference compared to control” value turned out to be 1 in [11] (AK); 1 in [11] (EHNA); 2 in experiment [11] (NBTI); 1 in experiment [12] (AK); 1 in [12] (EHNA); 1 in experiment [12] (NBTI).

Regarding `CCOC(=O)CCc1ccccc1OP(=O)(N[C@@H](C)C(=O)OCc1ccccc1)OC[C@@H]1C[C@@H](O)[C@H](n2cnc3c(N)ncnc32)O1` (stereo partly drawn) [F, (2S)-benzyl 2-(((((2S,4R,5R)-5-(6-amino-9H-purin-9-yl)-4-hydroxytetrahydrofuran-2-yl)methoxy)(2-(3-ethoxy-3-oxopropyl)phenoxy)phosphoryl)amino)propanoate], the Emax in [3] amounted to 99%; in experiment [4] it was 96%; in experiment [5], 89%; in experiment [6], 79%; in [7], 93%; in experiment [8], 95%. For the same molecule, the Emax in experiment [9] was found to be 103%; in experiment [10] it was 101%. The IC50 in experiment [5] was 15 to 100 µM; in [8], 15 to 100 µM; in [9] it was 5 to 15 µM; in [11] (Homo sapiens, 72 h, CEM (TdT+ve), 72 hours) it was 4.3 µM. Further, the results for the “(FD) fold difference compared to Cordycepin = Cordycepin IC50/ProTide IC50” value in [11] (CEM (TdT+ve)) and in experiment [12] were 5 and 7, respectively.
